Source: US20260071252A1, “REVERSIBLE NANOPARTICLE AGGREGATES AND METHODS FOR DETECTING PROTEASES” (The Regents of the University of California, priority 2022, published 2026)
Where “and” joins values, the source holds several entries; their conditions need not be identical. Equal entries are not always repeated. Where no end group is shown, it is not given here.

Experiments:
trypsin = test: Trypsin sensing with HS-PEG-peptide conjugates and Arg-Arg-AuNPs assemblies; assay type: biochemical
Experimental: Peptides containing the motif Arg-Arg-Lys (RRK) were thus conjugated to a thiolated PEG capped with a carboxyl group (HS-PEG12-COOH, Mw=634 Da) via EDC/NHS cross-linking reaction. Three peptides based on the motif RRK were investigated and the number of RRK repetitions varied from 1 to 3 to increase the mass and charge of the resulting HS-PEG-peptide conjugate (FIG. 6A).
From concentrations of 10 μM, HS-PEG12-COOH is capable to dissociate 100% of the assemblies (FIG. 21). However, the conjugation of the peptides to the HS-PEG12-COOH was expected to decrease its capacity to dissociate the assemblies as it increases its size and charge. In this context, the addition of the HS-PEG-peptide conjugates to AuNPs assemblies could not generate a colorimetric signal. However, in the presence of trypsin, the proteolytic cleavage could progressively remove the amino acids residues from the conjugate, thus reducing its size and charge that would restore the dissociation capacity. A colorimetric signal, proportional to the trypsin activity, could thus be observed (FIG. 6B).
Typically, 1 mL of HS-PEG12-COOH (HS—(CH2CH2O)12—CH2CH2COOH, 634 Da, 1 mM) dissolved in MES buffer (10 mM, pH=5.5) was activated via the addition of 100 μL of EDC (50 mM, MES) and 40 μL of NHS (500 mM, MES). The reaction was stirred at room temperature for one hour. After one hour, 1 mL of peptide (or NH2-molecule) (1 mM) dissolved in PBS (100 mM, pH=7.4) was added to the activated HS-PEG12-COOH. The reaction was stirred for 4 hours at room temperature and then stored at 4° C.
Typically, 5 μL of the PEG-peptide conjugate (0.44 mM) were added to 5 μL of PBS 1×. […] At the end of the incubation, 100 μL of aggregated AuNPs (Arg-Arg-AuNPs) were added, and a color change proportional to the trypsin concentration was observed. UV-Vis spectra were recorded 30 minutes later.

[1] = Colloidal stability of the dissociated AuNPs (aggregation parameter); assay type: physicochemical; conditions: for colloidal stability of peptide-capped AuNPs: NaCl 0.5 to 2 μM (so in the source), absorbance 520/600 nm
Experimental: We further studied the role of Glu, Lys, and Pro amino acids in A1 peptides (FIG. 37h). For example, Pro-based spacer can provide a rigid and self-assembling monolayer (SAM) that increases the colloidal stability of AuNPs.^28 When the spacer was moved to the site between Glu and Lys residues (i.e., A5), the dissociation capacity was 50% lower than A1 peptide. […] A1 peptide without Lys (i.e., A7) decreased to 30% of the dissociation capacity likely due to the decrease in grafting kinetics of thiol-Au bonds and hydration layers.^22,25 Lastly, the dissociated AuNPs were incubated in different concentrations ([…]) of NaCl to examine colloidal stability of the dissociated AuNPs (FIG. 37i).
Pro-, Ala-, and Gly-based spacers have different hydrophobic and hydrophilic natures, rigidity, and flexibility.^22,29 For example, Pro residue is more hydrophobic and rigid (i.e, low mobility) while Gly residue is more hydrophilic and flexible. To investigate the impact of the rigidity and hydrophilicity of the peptides on the particle dissociation, we synthesized A1, A10, and A11 peptides that have different spacers: PP, AA, GG (FIG. 38a-b and FIG. 49). We also synthesized the peptide without a spacer (i.e., A9) to confirm the impact of the spacer on particle dissociation. […] We further compared colloidal stability of the dissociated AuNPs by A1, A9, A10, and A11 peptides. The dissociated AuNPs were incubated in NaCl (from […]) for 1 h and measured variations of absorbance between 520 nm and 600 nm.
This exemplary dissociation strategy can also improve colloidal stability of plasmonic nanoparticles. […] Lastly, this exemplary dissociation strategy is less affected by matrix interference. We replaced the sample matrix with 100% human plasma, urine, saliva, and seawater after RRK-based AuNPs aggregation. After adding dissociation peptides, reversible aggregation still occurred, leading to a blue-shift of the plasmonic resonance peak; this in turn changes color from blue to red in 100% human plasma, urine, saliva, and seawater (FIG. 40j-k and FIG. 27).

[2] = RRK-based aggregation of citrate-coated AuNPs; conditions: for particle aggregation of AuNPs: peptides from 0.5 to 30 μM
Source text: To induce reversible aggregation of the AuNPs, we used positively charged Arg and Lys-based peptide residues (i.e., RRK). The RRK peptide could induce plasmonic coupling by electrostatic attractions between negatively charged citrate molecules and guanidine and amine groups in RRK (FIG. 36a).^8,19 The size of AuNPs increased upon addition of RRK peptides, as confirmed by transmission electron microscopy (TEM) and dynamic light scattering (DLS) (FIG. 36b and FIG. 42). […] Raman spectroscopy observed the appearance of C—C stretching at 984 cm^−1 and C—N stretching at 1443 cm^−1 from Arg residues in RRK (FIG. 36d).^20 Lastly, R, RRK, and RRKRRK (SEQ ID NO:13) peptides (from 0.5 to 30 μM) were used to induce AuNP aggregates to study the impact of charge number on particle aggregation. […] A higher positive charge number can decrease the critical coagulation concentration (CCC).^7 RRK peptide was chosen in this study because particle aggregation induced by a strong cationic peptide (i.e., RRKRRK) (SEQ ID NO:13) can result in irreversible aggregation.
(§1) Briefly, 10 μM of RRK peptide was used to aggregate 100 μL of AuNPs (conc approximately 3.6 nM). The particle aggregation rapidly occurred (less than 10 s), changing color from red to blue. Then the desired dissociation peptides were used to dissociate the AuNP aggregates. It is notable that these exemplary AuNPs are stabilized by citrate. Different surface ligands (for example, BSPP) and different sizes (40 or 60 nm) require different amounts of RRK peptide for particle aggregation.

[3] = Peptide-enabled dissociation of RRK-induced AuNP aggregates
Experimental: After inducing AuNP aggregates by the RRK peptides, the A1 peptides with different concentrations from 7 to 300 μM were used to dissociate AuNP aggregates. The plasmonic resonance peak of AuNP aggregates blue shifted to 520 nm after particle dissociation. (FIG. 37b). The hydrodynamic diameter of AuNP aggregates (greater than (>) 1 μm) was reduced to 27±0.07 nm, and the surface charge of AuNPs was—13.4±1.03 mV because of surface modification with neutral charged A1 peptides (150 μM) and residual citrates (FIG. 37c). Particle dissociation induced color change from blue to red and a decrease in size as confirmed by time-dependent photographs, multi-laser wavelength nanoparticle tracking analysis (M-NTA), and TEM (FIG. 37d-e and FIG. 45A-C).
To further study the role of each amino acid in the A1 peptide, we synthesized eight peptide sequences (from A2 to A8) for control experiments (FIG. 46A-H). Table 1 includes peptide sequence, net charge, critical dissociation concentrations (CDC), and design rationale. First, we replaced Cys residue with Gly (i.e., A2) to confirm the role of the anchoring group. […] Second, we hypothesized that negatively charged EE residues were required for particle dissociation because they provide electrostatic repulsions for citrate-coated AuNPs.
as §1
Briefly, RRK peptides (8-10 μM) was first used to trigger AuNP aggregation in distilled water. The sample was centrifuged at […] for 5 min to remove the supernatant. Then, the pellet was re-dispersed in 100% human saliva, plasma, urine, and seawater. After re-dispersion, the desired amounts of dissociation peptide were used to dissociate AuNPs aggregates in different matrixes. […] The experiment was performed with three replicates, and the microplate reader was used to measure spectral scanning from 300 to 900 nm before and after dissociation. The ratiometric signal (λ520/λ700) was referred as dissociation. The data was blanked to remove background signal.

[4] = Peptide-induced (Arg-Arg) assembly of AuNPs-citrate, TEM/MANTA/UV-Vis; conditions: water
Source text: Formation of AuNP assemblies. In this study, we investigated the possibility of forming convenient and reversible AuNPs assemblies using only elementary 15 nm AuNPs-citrate suspended in water and short peptides without the need for a complex surface modification. Peptides were used because they are relatively bulky and thus their steric prevented the particles from entering a permanent aggregated state. Arginine in particular can strongly interact with citrate anions via electrostatic interactions. A dipeptide containing two repetitions of arginine (Arg-Arg or RR) was thus used to interact with multiple particles at the same time and induce assembly.
Multispectral advanced nanoparticles tracking analysis (MANTA) was then used to confirm the size increase: The initial blue scattering corresponding to a hydrodynamic diameter of 40±25 nm (FIG. 1C) transformed immediately into red scattering corresponding to a hydrodynamic diameter of approximately 467±120 nm (FIG. 1D). Importantly, the count of particles decreased by more than 90%—from 2.5×10^5/mL to 2×10^4/mL, thus confirming that the vast majority of the AuNPs-citrate were aggregated. TEM images at different magnifications are seen in the supporting information (FIG. 10 and FIG. 11).
AuNPs Assembly and Dissociation Assembly. Typically, 1 mL of AuNPs-citrate at OD=1.5 was mixed with 50 μL of Arg-Arg (100 μM) to provoke the AuNPs assembly. The color of the suspensions rapidly changed from red to blue. The assembled AuNPs (Arg-Arg-AuNPs) were stable over time when stored at 4° C. and could be used for dissociation even month after their assembly.
The optical absorption measurements were collected using a hybrid multi-mode microplate reader (Synergy™ H1 model, BioTek Instruments, Inc.) in a 96-well plate. The dissociation of assembly was characterized by measuring the ratio of the absorbance at 520 nm or 530 nm and 700 nm or 820 nm for 20 nm NPs or 40 nm NPs, respectively.
The multispectral advanced nanoparticle tracking analysis (MANTA) is a technique that builds images from the particles' light scattering via three lasers of different wavelengths (for example, blue, green, and red); the wavelength of scattering depends on nanoparticle size. Thus, small particles (less than, or <, 100 nm) appear blue while larger particles appear greener or redder. MANTA uses these images to count the nanoparticles and calculate their size based on Brownian motion. MANTA was performed with the VIEWSIZER 3000™ (Horiba Scientific, USA). The temperature was set to 25° C. during the measurement. Automated noise analysis determines the optimal wavelength for representing each nanoparticle. Here, 8-bit composite videos were generated, and 10 videos were used per analysis (300 frames for seconds). A quartz cuvette with minimum volume of 1 mL was used for the measurement and the AuNPs concentrations was set up at 0.04 nM.

[5] = Dissociation efficiency of HS-PEG6-OCH3 for alternative assembly conditions or coating ligands; conditions: high concentration (>100 μM) of HS-PEG6-OCH3
Experimental: First, peptide-free conditions were used to promote the assembly of AuNPs-citrate and its dissociation with HS-PEG6-OCH3 was evaluated (FIG. 3A). Here, salts were added to AuNPs-citrate to induce aggregation via disruption of the electrostatic repulsion forces between the particles. […] Unlike the peptide Arg-Arg, these ions cannot sterically prevent the AuNPs from falling in an irreversible aggregated state.
AuNPs with different coating ligands were also evaluated and compared to citrate: bis(p-sulfonatophenyl)phenylphosphine (BSPP), mercaptobenzoic acid (MBA), or thiolated PEG-COOH (HS-PEG-COOH; Mw=634 g·mol^−1). […] This is because MBA and HS-PEG-COOH make covalent Au—S bonds with the gold surface that prevent subsequent grafting of HS-PEG6-OCH3.
Finally, an alternative control peptide was used for assembly (Cys-Arg-Lys).

[6] = molecular target: SARS-CoV-2 main protease (Mpro) (Severe acute respiratory syndrome coronavirus 2, UniProt P0DTD1)

HS-PEG-RRKRRKRRK: HS-PEG12-COOH conjugated to peptide RRKRRKRRK via EDC/NHS (also: HS-PEG12 conjugated via EDC/NHS, site not given here)
dissociation capacity of the intact conjugate (trypsin; titrated to Arg-Arg-AuNPs, up to >100 μM, no trypsin): total quenching of the dissociation capacity
dissociation capacity after digestion with trypsin (trypsin; trypsin 10 μM, 37° C., 24 h): restored

Ace-EEKKC-Am [Peptide A9]
colloidal stability of peptide-capped AuNPs [1]: relatively low colloidal stability

Arg-Arg-Lys [RRK]
particle aggregation of AuNPs [2]: effectively induced particle aggregation
plasmonic resonance peak after addition of peptide ([2]; red-shifted from 520 nm): 648 nm

RRKRRK
particle aggregation of AuNPs [2]: effectively induced particle aggregation

Ace-EEKKPPC-Am [Peptide A1]
colloidal stability of peptide-capped AuNPs [1]: higher colloidal stability than citrate-coated AuNPs
time to dissociate AuNP aggregates ([3]; >150 μM peptide, ratiometric signal λ520/λ700): 20 min
hydrodynamic diameter after dissociation ([3]; A1 peptide 150 μM, aggregates >1 μm before): 27±0.07 nm
CDC ([3]; critical dissociation concentration, X (no dissociation)): 150 µM
CDC ([3]; spacer comparison PP, AA, GG): 40 µM

N=C(N)NCCC[C@H](N)C(=O)O [R, arginine, reference compound]
induction of assembly of AuNPs-citrate [4]: could not induce any form of assembly
particle aggregation of AuNPs [2]: did not aggregate

Cys-Arg-Lys [reference compound]
dissociation of the assembly by HS-PEG6-OCH3 [5]: irreversible

Ace-CGGKKEEAVLQSGFR-Am (Ac-CGGKKEEAVLQSGFR-NH2) [Peptide A18]
colloidal stability in extreme conditions ([1]; DMEM, human plasma, saliva, human urine, NaCl 0.5 to 2M): maintained high colloidal stability
CDC [6]: at least 40 μM
LoD for Mpro [6]: 12.3 nM and 16.7 nM and 16.4 nM
specificity test [6]: only Mpro dissociated AuNP aggregates
